This passage reports IC90 results from patent publication US20240376073A1 (Hoffmann-La Roche Inc., priority 2021, published 2024).

Molecules are shown by their SMILES. Counter-ions that a name gives are not always drawn.

The first test has as its system Acinetobacter baumannii ATCC17961. The experiment in a line: Antimicrobial susceptibility testing: 90% growth inhibitory concentration (IC90) determination. The class given is cell-based. The following applies: Acinetobacter baumannii ATCC17961; Iso-Sensitest broth; growth by OD 600 nm over 16 h; 35±2° C.; read-out: ATCC 17961 IC90. How it is done:
The in vitro antimicrobial activity of the compounds was determined according to the following procedure:
The assay used a 10-points Iso-Sensitest broth medium to measure quantitatively the in vitro activity of the compounds against Acinetobacter baumannii ATCC17961.
Stock compounds in DMSO were serially twofold diluted (e.g. range from 50 to 0.097 μM final concentration) in 384 wells microtiter plates and inoculated with 49 μl the bacterial suspension in Iso-Sensitest medium to have a final cell concentration of ˜5×10^(5) CFU/ml in a final volume/well of 50 ul/well. Microtiter plates were incubated at 35±2° C.
Bacterial cell growth was determined with the measurement of optical density at λ=600 nm each 20 minutes over a time course of 16 h. Growth inhibition was calculated during the logarithmic growth of the bacterial cells with determination of the concentration inhibiting 50% (IC50) and 90% (IC90) of the growth.
Table 1 provides the […] growth inhibitory concentrations (IC90) in micromoles per liter of the compounds of present invention obtained against the strain Acinetobacter baumannii ATCC17961.
In the case of `Cc1cc(NC(=O)c2ncc(-c3ccc(OCC#N)c(F)c3F)n2C)ccc1C(=O)N[C@H]1C[C@@H](NCC[N+](C)(C)C)C1` [Example A19, 2-[[3-[[4-[[5-[4-(cyanomethoxy)-2,3-difluoro-phenyl]-1-methyl-imidazole-2-carbonyl]amino]-2-methyl-benzoyl]amino]cyclobutyl]amino]ethyl-trimethyl-ammonium formate], the IC90 is 1200 nM.
On the same count and under the same terms, then `COc1ccc(-c2cnc(C(=O)Nc3ccc(C(=O)NCc4cn(CCO)[n+](C)c4)c(Cl)c3)n2C)c(F)c1F` [Example A20, N-[3-chloro-4-[[1-(2-hydroxyethyl)-2-methyl-pyrazol-2-ium-4-yl]methylcarbamoyl]phenyl]-5-(2,3-difluoro-4-methoxy-phenyl)-1-methyl-imidazole-2-carboxamide;formate], with 320 nM; and `COc1ccc(-c2cnc(C(=O)Nc3ccc(C(=O)NCc4cn(CCCO)[n+](C)c4)c(Cl)c3)n2C)c(F)c1F` [Example A21, N-[3-chloro-4-[1-(3-hydroxypropyl)-2-methyl-pyrazol-2-ium-4-yl]methylcarbamoyl]phenyl]-5-(2,3-difluoro-4-methoxy-phenyl)-1-methyl-imidazole-2-carboxamide; formate], with 330 nM; and `COc1ccc(-c2cnc(C(=O)Nc3ccc(C(=O)NCc4cn(CCC#N)[n+](C)c4)c(Cl)c3)n2C)c(F)c1F` [Example A22, N-[3-chloro-4-[1-(2-cyanoethyl)-2-methyl-pyrazol-2-ium-4-yl]methylcarbamoyl]phenyl]-5-(2,3-difluoro-4-methoxy-phenyl)-1-methyl-imidazole-2-carboxamide; formate], with 390 nM.
For the molecule `COc1ccc(-c2cnc(C(=O)Nc3ccc(C(=O)NCc4cn(CC(N)=O)[n+](C)c4)c(Cl)c3)n2C)c(F)c1F` [Example A23, N-[4-[1-(2-amino-2-oxo-ethyl)-2-methyl-pyrazol-2-ium-4-yl]methylcarbamoyl]-3-chloro-phenyl]-5-(2,3-difluoro-4-methoxy-phenyl)-1-methyl-imidazole-2-carboxamide; formate], the IC90 turned out to be 400 nM.
Still for that read-out and setting: for `COCCCn1cc(CNC(=O)c2ccc(NC(=O)c3ncc(-c4ccc(OC)c(F)c4F)n3C)cc2Cl)c[n+]1C` [Example A25, N-[3-chloro-4-[1-(3-methoxypropyl)-2-methyl-pyrazol-2-ium-4-yl]methylcarbamoyl]phenyl]-5-(2,3-difluoro-4-methoxy-phenyl)-1-methyl-imidazole-2-carboxamide; formate] the value was 410 nM; for `COc1ccc(-c2cnc(C(=O)Nc3ccc(C(=O)NCc4cn(CCOCCO)[n+](C)c4)c(Cl)c3)n2C)c(F)c1F` [Example A26, N-[3-chloro-4-[1-[2-(2-hydroxyethoxy)ethyl]-2-methyl-pyrazol-2-ium-4-yl]methylcarbamoyl]phenyl]-5-(2,3-difluoro-4-methoxy-phenyl)-1-methyl-imidazole-2-carboxamide; formate], 410 nM.
The same measure, in the same setting: then `COc1ccc(-c2cnc(C(=O)Nc3ccc(C(=O)NCc4cnc(NC(=O)[C@@H]5C[C@@H](O)C[N+]5(C)C)s4)c(Cl)c3)n2C)c(F)c1F` [Example A27, N-[3-chloro-4-[[2-[[(2S,4R)-4-hydroxy-1,1-dimethyl-pyrrolidin-1-ium-2-carbonyl]amino]thiazol-5-yl]methylcarbamoyl]phenyl]-5-(2,3-difluoro-4-methoxy-phenyl)-1-methyl-imidazole-2-carboxamide; formate], with 56 nM; and `COc1ccc(-c2cnc(C(=O)Nc3ccc(C(=O)NCc4cnc(NC(=O)C5CCC[N+]5(C)C)s4)c(Cl)c3)n2C)c(F)c1F` (centres unmarked) [Example A28, N-[3-chloro-4-[2-[(1,1-dimethylpyrrolidin-1-ium-2-carbonyl)amino]thiazol-5-yl]methylcarbamoyl]phenyl]-5-(2,3-difluoro-4-methoxy-phenyl)-1-methyl-imidazole-2-carboxamide; formate], with 88 nM.
Same read-out and setting: then `COc1ccc(-c2cnc(C(=O)Nc3ccc(C(=O)NCc4cnc(NC(=O)C5CC[N+](C)(C)CC5)s4)c(Cl)c3)n2C)c(F)c1F` [Example A29, N-[5-[2-chloro-4-[[5-(2,3-difluoro-4-methoxy-phenyl)-1-methyl-imidazole-2-carbonyl]amino]benzoyl]amino]methyl]thiazol-2-yl]-1,1-dimethyl-piperidin-1-ium-4-carboxamide; formate], with 170 nM; and `COc1ccc(-c2cnc(C(=O)Nc3ccc(C(=O)NCc4cnc(NC(=O)C5CC[N+](C)(CC(N)=O)CC5)s4)c(Cl)c3)n2C)c(F)c1F` (centres unmarked) [Example A30, 1-(2-amino-2-oxo-ethyl)-N-[5-[[[2-chloro-4-[[5-(2,3-difluoro-4-methoxy-phenyl)-1-methyl-imidazole-2-carbonyl]amino]benzoyl]amino]methyl]thiazol-2-yl]-1-methyl-piperidin-1-ium-4-carboxamide; formate], with 140 nM; and `COc1ccc(-c2cnc(C(=O)Nc3ccc(C(=O)N4CCC(C(=O)NCc5cnc(NC(=O)C6CC[N+](C)(C)CC6)s5)CC4)c(Cl)c3)n2C)c(F)c1F` [Example A31, N-[5-[[1-[2-chloro-4-[[5-(2,3-difluoro-4-methoxy-phenyl)-1-methyl-imidazole-2-carbonyl]amino]benzoyl]piperidine-4-carbonyl]amino]methyl]thiazol-2-yl]-1,1-dimethyl-piperidin-1-ium-4-carboxamide; formate], with 170 nM.
For the molecule `COc1ccc(-c2cnc(C(=O)Nc3ccc(C(=O)N4CCN(C(=O)C[N+](C)(C)CC(N)=O)CC4)c(C)c3)n2C)c(F)c1F` [Example B1, (2-Amino-2-oxo-ethyl)-[2-[4-[4-[[5-(2,3-difluoro-4-methoxy-phenyl)-1-methyl-imidazole-2-carbonyl]amino]-2-methyl-benzoyl]piperazin-1-yl]-2-oxo-ethyl]-dimethyl-ammonium;formate], the IC90 amounted to 280 nM.
The same measure, in the same setting: for `Cc1cc(NC(=O)c2ncc(-c3ccc(OCC#N)c(F)c3F)n2C)ccc1C(=O)N1CCN(C(=O)C[N+](C)(C)CC(N)=O)CC1` [Example B2, (2-amino-2-oxo-ethyl)-[2-[4-[4-[[5-[4-(cyanomethoxy)-2,3-difluoro-phenyl]-1-methyl-imidazole-2-carbonyl]amino]-2-methyl-benzoyl]piperazin-1-yl]-2-oxo-ethyl]-dimethyl-mmonium; formate] the value was 230 nM.
Still for that read-out and setting: then `COc1ccc(-c2cnc(C(=O)Nc3ccc(C(=O)N4CCN(C(=O)CC[N+](C)(C)CC(N)=O)CC4)c(C)c3)n2C)c(F)c1F` [Example B3, (2-amino-2-oxo-ethyl)-[3-[4-[4-[[5-(2,3-difluoro-4-methoxy-phenyl)-1-methyl-imidazole-2-carbonyl]amino]-2-methyl-benzoyl]piperazin-1-yl]-3-oxo-propyl]-dimethyl-ammonium; 2,2,2-trifluoroacetate], with 190 nM; and `Cn1c(-c2ccc(OCC#N)c(F)c2F)cnc1C(=O)Nc1ccc(C(=O)N2CCN(C(=O)C[N+](C)(C)CC(N)=O)CC2)c(Cl)c1` [Example B4, (2-amino-2-oxo-ethyl)-[2-[4-[2-chloro-4-[[5-[4-(cyanomethoxy)-2,3-difluoro-phenyl]-1-methyl-imidazole-2-carbonyl]amino]benzoyl]piperazin-1-yl]-2-oxo-ethyl]-dimethyl-ammonium; formate], with 110 nM.
The same measure, in the same setting: for `COc1ccc(-c2cnc(C(=O)Nc3ccc(C(=O)N4CCC(NC(=O)C[N+](C)(C)CC(N)=O)CC4)c(Cl)c3)n2C)c(F)c1F` [Example B5, (2-amino-2-oxo-ethyl)-[2-[1-[2-chloro-4-[5-(2,3-difluoro-4-methoxy-phenyl)-1-methyl-imidazole-2-carbonyl]amino]benzoyl]-4-piperidyl]amino]-2-oxo-ethyl]-dimethyl-ammonium; formate] the value was 120 nM; for `COc1ccc(-c2cnc(C(=O)Nc3ccc(C(=O)NC4CN(C(=O)C[N+](C)(C)CC(N)=O)C4)c(Cl)c3)n2C)c(F)c1F` [Example B6, (2-amino-2-oxo-ethyl)-[2-[3-[[2-chloro-4-[[5-(2,3-difluoro-4-methoxy-phenyl)-1-methyl-imidazole-2-carbonyl]amino]benzoyl]aminoJazetidin-1-yl]-2-oxo-ethyl]-dimethyl-ammonium; formate], 290 nM.
Take `COc1ccc(-c2cnc(C(=O)Nc3ccc(C(=O)N4CCN(C(=O)C[N+](C)(C)CC(N)=O)CC4)c(Cl)c3)n2C)c(F)c1F` [Example B7, (2-amino-2-oxo-ethyl)-[2-[4-[2-chloro-4-[[5-(2,3-difluoro-4-methoxy-phenyl)-1-methyl-imidazole-2-carbonyl]amino]benzoyl]piperazin-1-yl]-2-oxo-ethyl]-dimethyl-ammonium; formate]: the IC90 was found to be 99 nM.

Still in this test, the particulars now being: Acinetobacter baumannii, ATCC17961, 16 h, read-out: ATCC 17961 IC90, Acinetobacter baumannii ATCC17961; Iso-Sensitest broth; growth by OD 600 nm over 16 h; 35±2° C.
As for `COc1ccc(-c2cnc(C(=O)Nc3ccc(C(=O)NCc4cn(CCS(C)(=O)=O)[n+](C)c4)c(Cl)c3)n2C)c(F)c1F` [Example A24, N-[3-chloro-4-[[1-methyl-2-(2-methylsulfonylethyl)pyrazol-1-ium-4-yl]methylcarbamoyl]phenyl]-5-(2,3-difluoro-4-methoxy-phenyl)-1-methyl-imidazole-2-carboxamide; formate], the IC90 is 350 nM.
